Measured values: paper PMC5651862 (Scientific Reports, 2017)

Assays:
[1] = molecular target: T1, full-length human RXRα (Homo sapiens, UniProt P19793); test: RXRα-dependent luciferase reporter gene transactivation in HEK293 cells; details: HEK293, 18 h, up to 10 µM
T1 sequence (P19793 1-462): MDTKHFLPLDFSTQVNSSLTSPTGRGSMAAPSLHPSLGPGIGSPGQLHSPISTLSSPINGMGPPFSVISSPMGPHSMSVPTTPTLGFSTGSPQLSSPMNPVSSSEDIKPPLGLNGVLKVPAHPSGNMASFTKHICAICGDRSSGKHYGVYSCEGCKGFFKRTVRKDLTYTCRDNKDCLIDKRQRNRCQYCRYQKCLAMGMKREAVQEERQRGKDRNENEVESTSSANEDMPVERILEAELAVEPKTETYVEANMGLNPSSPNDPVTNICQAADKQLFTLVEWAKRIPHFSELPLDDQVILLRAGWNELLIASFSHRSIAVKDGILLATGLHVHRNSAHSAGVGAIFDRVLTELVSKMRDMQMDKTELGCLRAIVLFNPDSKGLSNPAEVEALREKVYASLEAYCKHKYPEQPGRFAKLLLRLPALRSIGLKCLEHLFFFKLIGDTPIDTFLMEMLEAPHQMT

[2] = molecular target: T2, purified human PPARγ LBD (Homo sapiens, UniProt P37231); test: LanthaScreen TR-FRET PPARγ competitive binding assay
T2 construct: purchased Invitrogen
T2 sequence (P37231 238-503 limits assumed): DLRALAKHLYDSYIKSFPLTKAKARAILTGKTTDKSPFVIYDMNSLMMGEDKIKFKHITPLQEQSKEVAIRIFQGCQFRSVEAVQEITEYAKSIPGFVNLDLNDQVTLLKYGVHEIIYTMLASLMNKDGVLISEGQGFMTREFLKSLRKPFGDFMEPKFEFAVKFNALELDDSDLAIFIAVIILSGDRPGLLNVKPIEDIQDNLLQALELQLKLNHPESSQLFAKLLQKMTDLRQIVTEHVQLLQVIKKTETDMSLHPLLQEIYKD
Description: In this assay a fluorescently labeled ligand (Fluormone, Invitrogen) is displaced upon binding of the tested compound leading to a decrease in the FRET signal. Binding to the receptor was assessed in a concentration-dependent manner. […] Compounds that bind to the PPARγ LBD displace the fluorescently labeled ligand […]. […] Data points are represented as mean ± SEM from four independent experiments performed in duplicate. […] HEK-293 cells were transfected as described in the Methods section and stimulated for 18 h, as indicated. Luciferase activity was normalized to EGFP-derived fluorescence. Results are expressed as fold induction compared with the solvent control (DMSO, 0.1%). EC50 values were calculated using a sigmoidal curve fit with variable slope. […] HEK293 cells were transfected as described in the Methods section, treated as indicated for 18 h and luciferase activity measured as under (A). All data are shown as means ± SD of at least three independent experiments performed in quadruplicate. […] The compounds were dissolved in DMSO (solvent vehicle) and incubated together with the human PPARγ LBD tagged with GST, terbium-labeled anti-GST antibody and fluorescently labeled PPAR ligand (Fluormone™ Pan-PPAR Green). Binding of a ligand results in a fluorescence resonance energy transfer (FRET) after excitation of terbium at 340 nm and in an emission at 520 nm. Test compounds binding to the human PPARγ LBD are competing with the fluorescently labeled ligand and displacing it, resulting in a decrease of the FRET signal. […] All quantifications were performed with a GeniosPro plate reader (Tecan).
To calculate the EC50 values data were curve fitted and non-linear transformed using a sigmoidal dose response with variable slope.

[3] = test system: 3T3-L1 preadipocytes; test: Adipocyte differentiation in 3T3-L1 pre-adipocytes (Oil Red O); format: cell-based; details: 1–10 µM, 8 days, insulin 1 µg/mL
Description: PPARγ plays a major role in adipocyte differentiation and in the regulation of adipose-related genes that are involved in developing the adipose phenotype. […]
solution in PBS. After 4 hours plates were read on a Tecan GeniosPro plate reader using an excitation wavelength of 535 nm and an emission wavelength of 580 nm.
Adipocyte differentiation in 3T3-L1 cells
Insulin control Rosiglitazone (1 µM) […]
dimer (1). 3T3-L1 cells were incubated in medium containing insulin (1 µg/mL) for 8 days with or […]
µM) was used as positive control. The medium was exchanged every second day. At day 8, cells were fixed in 10% formaldehyde, stained with Oil Red O and photographed (A). Oil Red O was then […]
solubilized and quantified at 550 nm using a plate reader (B). Lipid accumulation is expressed as fold increase compared to the insulin/solvent control (1 µg/mL insulin in 0.1 % DMSO) and is expressed as means ± SD of three independent experiments (One-way ANOVA, Bonfferoni post test, p<0.05 *). […]
Medium was exchanged every second day. After eight days, lipid accumulation (as a measure of adipogenic differentiation) was determined by Oil Red O staining as described previously.5 For this, cells were fixed in 10% formaldehyde for 1 h and stained with Oil Red O for 10 minutes. […]

[4] = Resazurin conversion assay (cytotoxicity); format: cell-based; details: human, HEK293 cells, HEK293, vs DMSO 0.1%, read-out: cell viability
Description: Assessment of cytotoxicity […]
on cell viability assessed by the resazurin conversion assay in HEK293 cells. HEK293 cells were […]
conversion was measured after 4 hours. Results are expressed as % cell viability compared to the solvent control DMSO (0.1%). Data are expressed as means ± SD of three independent experiments performed in quadruplicate. (One-way ANOVA, Dunnett´s test, p<0.01**). […]
resofurin. Conversion of this non-fluorescent agent to resofurin depends on redox equivalents provided by cellular metabolism. Thus, the conversion (fluorescence signal) is direct proportional to the number of viable cells and thus to cell viability. HEK293 cells (ATCC, Manassas, VA) were seeded in 96-well plates at a density of 40,000 cells per well and incubated for 24 hours in DMEM supplemented with 2 mM glutamine, 100 U/ml benzylpenicillin, 100 μg/ml streptomycin, and 10% fetal bovine serum. Next day, cells were incubated with increasing concentrations of the indicated […]
After 24 hours of incubation with the test compounds cells were washed again in PBS and then incubated with 10 μg/mL resazurin […]
solution in PBS. After 4 hours plates were read on a Tecan GeniosPro plate reader using an excitation wavelength of 535 nm and an emission wavelength of 580 nm. […]

[5] = molecular target: T3, full-length human PPARγ (Homo sapiens, UniProt P37231); test: PPARγ-dependent luciferase reporter gene transactivation in HEK293 cells
T3 sequence (P37231 1-477 isoform P37231-2): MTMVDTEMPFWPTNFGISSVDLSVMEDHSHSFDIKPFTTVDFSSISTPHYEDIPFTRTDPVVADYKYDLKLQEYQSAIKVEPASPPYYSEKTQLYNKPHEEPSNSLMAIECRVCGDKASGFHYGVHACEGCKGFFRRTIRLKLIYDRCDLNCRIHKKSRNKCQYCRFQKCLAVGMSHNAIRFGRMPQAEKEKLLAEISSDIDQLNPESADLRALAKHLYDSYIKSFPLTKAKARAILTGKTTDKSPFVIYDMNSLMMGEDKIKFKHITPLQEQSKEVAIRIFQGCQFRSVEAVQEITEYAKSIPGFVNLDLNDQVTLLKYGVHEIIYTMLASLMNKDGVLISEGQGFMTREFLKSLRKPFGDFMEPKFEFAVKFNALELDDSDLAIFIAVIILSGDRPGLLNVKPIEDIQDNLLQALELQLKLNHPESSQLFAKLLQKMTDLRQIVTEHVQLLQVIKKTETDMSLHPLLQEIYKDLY

[6] = molecular target: T4, PPARγ/RXRα heterodimer (Homo sapiens, UniProt P19793+P37231); test: PPARγ/RXRα heterodimer-induced luciferase reporter transactivation in co-transfected HEK293 cells; format: cell-based; details: 18 h
T4 construct: transfected with 6 μg of full-length human PPARγ and full-length human RXRα expression plasmid, respectively or both; expressed in transfected cells; host or cells: HEK293
T4 sequence (P37231 1-477 isoform P37231-2): T3 sequence (P37231 1-477 isoform P37231-2)
T4 sequence (P19793 1-462): T1 sequence (P19793 1-462)
Description: Luciferase activity was normalized to EGFP-derived fluorescence.

Row | SMILES | RXRα-dependent luciferase gene expression (result in words) [1] | RXRα-dependent luciferase gene expression (result in words) ([1]; listed as the dimer) | Ki ([2]; competitive displacement of Fluormone Pan-PPAR Green, Cheng-Prusoff, four independent experiments in duplicate) [µM] | fold higher affinity to human PPARγ LBD compared to magnolol ([2]; ratio of Ki values) | fold higher affinity to human PPARγ LBD compared to pioglitazone ([2]; ratio of Ki values) | adipocyte differentiation (result in words) [3] | viability at 24 h, 10 µM [4] [%] | viability at 24 h, 30 µM [4] [%] | EC50 [5] [µM] | Emax PPARγ-dependent luciferase transactivation ([5]; HEK293, 18 h, Emax values ± SD, results as fold induction vs DMSO) | efficacy compared to pioglitazone ([5]; HEK293, Emax relative to full agonist pioglitazone) | fold lower potency compared to magnolol ([5]; ratio of EC50 values) | fold activation of PPARγ/RXRα heterodimer, co-treatment with bexarotene ([6]; 10 µM compound plus full RXR agonist bexarotene, HEK293 co-transfected) [fold] | fold activation of PPARγ/RXRα heterodimer ([6]; 10 µM, HEK293 co-transfected with PPARγ and RXRα, vs DMSO 0.2%) [fold]
1 | C=CCc1ccc(O)c(-c2cc(CC=CCCCc3cc(O)c(-c4cc(CC=C)ccc4O)cc3CC=C)ccc2O)c1 [magnolol dimer (1)] | does not activate RXRα-dependent luciferase gene expression | did not transactivate RXRα-dependent luciferase gene expression | 0.00503 | more than 12 fold | more than 16 fold | induces adipocyte differentiation | ≥ 90 | 22.7 ± 5.35 | 1.52 | 4.67 ± 0.26 | around 62% | about 1.5 fold | 13.20 ± 3.98 | 3.82 ± 1.22
2 | C=CCc1ccc(O)c(-c2cc(CC=C)ccc2O)c1 [magnolol, reference compound] |  |  |  |  |  |  | ≥ 90 | 9.1 ± 9.05 |  |  |  |  |  | 
